Measurements from publication PMC4906375, “Contribution of Amphipathicity and Hydrophobicity to the Antimicrobial Activity and Cytotoxicity of β-Hairpin Peptides” (ACS Infectious Diseases, 2016).
In brackets after ≈: the same amount, converted by molar mass. Like-named read-outs stand apart in the source and are kept apart here. Residues, ends and D or L forms follow the SMILES beside them.

Key:
[1] = tested on: P. aeruginosa ATCC 27853; assay type: cell-based, Pseudomonas aeruginosa; details: ATCC 27853
Experimental: (§1) Both antibacterial and antifungal MIC assays were performed by a broth microdilution plate based method as per CLSI guidelines for antimicrobial susceptibility testing.[53],[54] […] Full assay details are included in the Supporting Information with a full list of strains tested in Table S1.
(§2) Antibacterial assay (Minimum Inhibitory Concentration [MIC]).
(§3) MIC assay was performed by a broth microdilution plate based method as per CLSI guidelines for antimicrobial susceptibility testing of aerobic bacteria.1 Compounds were prepared at 1.28 mg/mL solution in water. The tested strains, Table S1, were cultured in Luria broth (LB) (In Vitro Technologies, USB75852), at 37 °C overnight. A sample of culture was then diluted 40Pfold in fresh Muller Hinton broth (MHB) (Bacto laboratories, 211443) and incubated at 37 °C for 1.5P2 h. The compounds were serially diluted twoPfold across the wells, with compound concentrations ranging from 0.015 µg/mL to 512 µg/mL, plated in duplicate. The resultant midPlog phase cultures were diluted to the final concentration of 1×10^6 CFU/mL, then 50 µL was added to each well of the compoundP containing 96Pwell plates (Corning 3641, NonPbinding Surface [NBS]), giving a final compound concentration range of 0.008 µg/mL to 256 µg/mL and 5x10^5 CFU/mL. All the plates were covered and incubated at 37 °C for 18 h. MICs were determined visually, being defined as the lowest concentration showing no visible growth. Resazurin was added at 0.001% final concentration to each well and incubated for 2 h before MICs were rePread for confirmation using the colour change from blue to pink to indicate wells containing viable cells. The resazurin assay was added in some wells where some form of precipitate was present in otherwise clear wells, making it difficult to ascertain which wells had visible […]
(§4) Antifungal assay (Minimum Inhibitory Concentration [MIC]). MIC assay was performed by a broth microdilution plate based method as per CLSI guidelines for antimicrobial susceptibility testing.2 Fungi strains, Table S1, were cultured for 3 days on Yeast ExtractPPeptone Dextrose (YPD) (SigmaPAldrich, Y1500) agar at 30 °C. A yeast suspension of 1x10^6 to 5x10^6 CFU/mL was prepared from five colonies. These stock suspensions were diluted with Yeast Nitrogen Base (YNB) (Becton Dickinson, 233520) broth to a final concentration of 2.5 ×10^3 CFU/mL. All samples, compounds and standards were plated in 96Pwell plates (Corning 3641, NonPbinding Surface [NBS]), by adding 10 µL of 1.28 mg/mL stock solution to each well and 90 µL of media. Then, the samples were serial diluted (1:2) in 12 concentrations across the plate. The standard antifungal ranged from 256

[2] = tested on: K. pneumoniae ATCC 13883; assay type: cell-based, Klebsiella pneumoniae; details: ATCC 13883
Experimental: as §1, §2, §3, §4

[3] = tested on: K. pneumoniae ATCC 700603 (MDR); assay type: cell-based, Klebsiella pneumoniae; details: n = 4
Experimental: as §1, §2, §3, §4

[4] = tested on: K. pneumoniae BAA 2146 (NDM-1 pos); assay type: cell-based, Klebsiella pneumoniae; details: n = 4
Experimental: as §1, §2, §3, §4

[5] = tested on: E. coli MB 4902 (ΔlpxC); assay type: cell-based, Escherichia coli; details: n = 4
Experimental: as §1, §2, §3, §4

[6] = tested on: E. coli ATCC 25922 (control strain); assay type: cell-based, Escherichia coli; details: ATCC 25922
Experimental: as §1, §2, §3, §4

[7] = tested on: E. coli ATCC 700926 (K12); assay type: cell-based, Escherichia coli; details: ATCC 700926
Experimental: as §1, §2, §3, §4

[8] = tested on: E. coli ATCC 25922 cytoplasmic membrane; assay: Inner membrane permeability measured by SYTOX green fluorescence emission; details: for permeabilisation of the E. coli cytoplasmic membrane at lethal concentrations: SYTOX green, E. coli ATCC 25922, 1 h
[9] = tested on: human erythrocytes; assay: Hemolysis assay; details: 3 h, relative to 100% hemolysis by 1% Triton X-100
[10] = tested on: HEK293 cells; assay: Cytotoxicity, Alamar Blue (resazurin) assay; assay type: cell-based, human; details: HEK293; highest concentration (300 μM) tested
Experimental: (§5) Cytotoxicity to HEK293 and HepG2 cells was determined using the Alamar Blue (resazurin) assay,[55],[56] with 24 h of incubation and either 1 or 10% serum concentration. Full assay details are included in the Supporting Information.
(§6) Cytotoxicity. Cytotoxicity to HEK293 and HepG2 cells was determined using the Alamar Blue (resazurin) assay,3, 4 For the assays supplemented with 1 % FBS as final concentration the cells were seeded one day prior to the assay (3,000 per 20 µL for HEK293 and 4,000 per 20 µL for HepG2) with DMEM + 2 % FBS. The compounds were prepared as described below, using DMEM with no FBS instead to give the final FBS concentration of 1 %.
(§7) The highest concentration the compounds were tested was 300 µg/mL. A dilution series of 1:3 fold steps in DMEM (GIBCOPInvitrogen, cat. no. 11995P073) + 10 % FBS was created (concentration range of 600 µg/mL – 0.28 µg/mL), and 20 µL of these 2x concentrated compound dilutions were added in duplicates to wells of a black wall, clear bottom 384Pwells cell culture plate. For the assays with 1 % FBS the compounds in 0 % FBS were added to the existing cell plates in 2 % FBS. 200 µM Tamoxifen (Sigma T5648) served as negative control and in addition a serial dilution of tamoxifen, starting at 200 µM (74 µg/mL), was included as a dose response control (1 in 2 dilution series for tamoxifen). For the assay with 10 % FBS, HepG2 cells were seeded at 5000 cells per well, in a volume of 20 µL in DMEM medium + 10 % of FBS and added to the 20 µL of compound solution (total volume of 40 µL), resulting in a final compound concentration range of 300 µg/mL to 0.14 µg/mL.
(§8) Cells were incubated together with the compounds for 20 h at 37 °C, 5 % CO2.
(§9) After the incubation, 5 µL of 100 µM (25 µg/mL) resazurin dissolved in PBS (final concentration was approximately 11 µM) was added to each well. The plates were then incubated for 3 h at 37 °C, 5 % CO2. The fluorescence intensity was read using the TECAN Infinite M1000 PRO with excitation/emission 560/590. The data was analysed by Graph Pad Prism software. Results are presented as the average percentage of control ± SD for each set of duplicate wells using the following equation: Cell survival % = (FISAMPLE – FINegative/FIUNTREATED –FINegative)*100. (100 µg/mL tamoxifen was set as 0 % survival, media

[11] = tested on: HepG2 cells; assay: Cytotoxicity, Alamar Blue (resazurin) assay; assay type: cell-based, human; details: HepG2; highest concentration (300 μM) tested
Experimental: as §5, §6, §7, §8, §9

[12] = tested on: human erythrocytes; details: red cells of human, 3 h

SMILES	MIC [1]	MIC [2]	MIC [3]	MIC [4]	MIC [5]	MIC [6]	MIC [7]	permeabilisation of the E. coli cytoplasmic membrane at lethal concentrations [8]	hemolysis (%) at 300 μg/mL [9]	cytotoxicity at the highest concentration tested [10]	cytotoxicity at the highest concentration tested [11]	permeabilization concentration relative to MIC ([8]; same E. coli ATCC 25922 strain)	hemolysis (%) at 300 μg/mL [12]
CC[C@H](C)[C@H](NC(=O)[C@@H](NC(=O)[C@@H]1CCCN1C(=O)[C@@H](NC(=O)[C@@H]1CCCN1C(=O)[C@H](CCCCN)NC(=O)[C@H](CCCCN)NC(=O)[C@H](CO)NC(=O)CN)C(C)C)[C@@H](C)CC)C(=O)N[C@@H](Cc1ccc(O)cc1)C(=O)N[C@H]1CSSC[C@@H](C(=O)N[C@@H](CCC(N)=O)C(=O)N[C@@H](CCCNC(=N)N)C(=O)N[C@@H](CCSC)C(N)=O)NC(=O)[C@H](CCCCN)NC(=O)CNC(=O)[C@H]([C@@H](C)O)NC(=O)[C@H](CCCNC(=N)N)NC(=O)[C@H](CCCNC(=N)N)NC(=O)[C@H](CC(N)=O)NC1=O [thanatin]	256 µg/mL (≈ 105 µM)	8 µg/mL (≈ 3.29 µM)	64 µg/mL (≈ 26.3 µM)	256 µg/mL (≈ 105 µM)	2 µg/mL (≈ 0.822 µM)	8 µg/mL (≈ 3.29 µM)	8 µg/mL (≈ 3.29 µM)	does not permeabilise	nonhemolytic	nontoxic	nontoxic	–	–
CC(C)[C@@H]1NC(=O)[C@H](CCCNC(=N)N)NC(=O)[C@H](Cc2ccccc2)NC(=O)[C@@H](NC(=O)[C@H](Cc2c[nH]c3ccccc23)NC(=O)[C@H](CCCNC(=N)N)NC(=O)[C@@H](N)CCCNC(=N)N)CSSC[C@@H](C(=O)N[C@@H](CCCNC(=N)N)C(N)=O)NC(=O)[C@H](CCCCN)NC(=O)[C@H](CCCNC(=N)N)NC(=O)[C@H](Cc2ccc(O)cc2)NC(=O)[C@@H]2CSSC[C@H](NC1=O)C(=O)N[C@@H](Cc1ccc(O)cc1)C(=O)N[C@@H](CCCNC(=N)N)C(=O)NCC(=O)N[C@@H](Cc1ccccc1)C(=O)N2 [polyphemusin-1] (HELM PEPTIDE1{R.R.W.C.F.R.V.C.Y.R.G.F.C.Y.R.K.C.R.[am]}$PEPTIDE1,PEPTIDE1,4:R3-17:R3|PEPTIDE1,PEPTIDE1,8:R3-13:R3$$$V2.0)	2 µg/mL (≈ 0.815 µM)	0.5 µg/mL (≈ 0.204 µM)	1 µg/mL (≈ 0.407 µM)	2 µg/mL (≈ 0.815 µM)	0.03 µg/mL (≈ 0.0122 µM)	0.5 µg/mL (≈ 0.204 µM)	0.06 µg/mL (≈ 0.0244 µM)	permeabilise	–	–	–	lower concentration than their MIC	–
[H][C@]12CSSC[C@]([H])(NC(=O)[C@]([H])([C@@H](C)CC)NC(=O)CNC(=O)[C@H](CCCNC(=N)N)NC(=O)[C@H](Cc3ccc(O)cc3)NC1=O)C(=O)N[C@@H](Cc1ccc(O)cc1)C(=O)N[C@@H](CCCNC(=N)N)C(=O)N[C@@H](CCCNC(=N)N)C(=O)N[C@H](C(=O)N[C@@H](CCCNC(=N)N)C(N)=O)CSSC[C@H](NC(=O)[C@H](Cc1c[nH]c3ccccc13)NC(=O)[C@@H](N)CCCCN)C(=O)N[C@@H](Cc1ccccc1)C(=O)N[C@@H](CCCNC(=N)N)C(=O)N[C@@H](C(C)C)C(=O)N2 [tachyplesin-1] (HELM PEPTIDE1{K.W.C.F.R.V.C.Y.R.G.I.C.Y.R.R.C.R.[am]}$PEPTIDE1,PEPTIDE1,3:R3-16:R3|PEPTIDE1,PEPTIDE1,7:R3-12:R3$$$V2.0)	0.25 µg/mL (≈ 0.11 µM)	0.125 µg/mL (≈ 0.0552 µM)	0.25 µg/mL (≈ 0.11 µM)	0.25 µg/mL (≈ 0.11 µM)	0.016 µg/mL (≈ 0.00707 µM)	0.06 µg/mL (≈ 0.0265 µM)	0.03 µg/mL (≈ 0.0133 µM)	permeabilise	–	–	–	–	27.8 ± 3.9%
CC(C)[C@@H]1NC(=O)CNC(=O)[C@H](CC(N)=O)NC(=O)[C@H](CCCNC(=N)N)NC(=O)[C@H](Cc2ccc(O)cc2)NC(=O)[C@H](C(C)C)NC(=O)[C@@H]2CSSC[C@H](NC(=O)[C@H](C(C)C)NC(=O)[C@H](CCCNC(=N)N)NC1=O)C(=O)N[C@@H](Cc1ccc(O)cc1)C(=O)N[C@@H](CCCNC(=N)N)C(=O)N[C@@H](CCCNC(=N)N)C(=O)N[C@H](C(=O)N[C@@H](CC(N)=O)C(=O)O)CSSC[C@H](NC(=O)[C@H](Cc1ccccc1)NC(=O)CN)C(=O)N[C@@H](Cc1c[nH]c3ccccc13)C(=O)N[C@@H](Cc1ccc(O)cc1)C(=O)N[C@@H](C(C)C)C(=O)N2 [arenicin-3] (HELM PEPTIDE1{G.F.C.W.Y.V.C.V.Y.R.N.G.V.R.V.C.Y.R.R.C.N}$PEPTIDE1,PEPTIDE1,3:R3-20:R3|PEPTIDE1,PEPTIDE1,7:R3-16:R3$$$V2.0)	1 µg/mL (≈ 0.383 µM)	1 µg/mL (≈ 0.383 µM)	4 µg/mL (≈ 1.53 µM)	4 µg/mL (≈ 1.53 µM)	0.125 µg/mL (≈ 0.0478 µM)	0.5 µg/mL (≈ 0.191 µM)	0.25 µg/mL (≈ 0.0957 µM)	permeabilise	–	–	–	–	4.4 ± 1.1%
